Experimental data: paper PMC3071989 (Clinical cancer research : an official journal of the …, 2010)
Values belong to the compound of their own block, whether it stands above or below them.

Tests used:
[1] = Docetaxel plasma pharmacokinetics with and without tariquidar; assay type: in vivo, human; settings: docetaxel 40 mg/m2, tariquidar 150 mg
[2] = patients who receive weekly docetaxel; cited from earlier work
[3] = target: T1, Pgp (Homo sapiens, UniProt P08183); test: Rhodamine 123 efflux from CD56+ mononuclear cells of patients; assay type: cell-based
T1 sequence (P08183 whole entry): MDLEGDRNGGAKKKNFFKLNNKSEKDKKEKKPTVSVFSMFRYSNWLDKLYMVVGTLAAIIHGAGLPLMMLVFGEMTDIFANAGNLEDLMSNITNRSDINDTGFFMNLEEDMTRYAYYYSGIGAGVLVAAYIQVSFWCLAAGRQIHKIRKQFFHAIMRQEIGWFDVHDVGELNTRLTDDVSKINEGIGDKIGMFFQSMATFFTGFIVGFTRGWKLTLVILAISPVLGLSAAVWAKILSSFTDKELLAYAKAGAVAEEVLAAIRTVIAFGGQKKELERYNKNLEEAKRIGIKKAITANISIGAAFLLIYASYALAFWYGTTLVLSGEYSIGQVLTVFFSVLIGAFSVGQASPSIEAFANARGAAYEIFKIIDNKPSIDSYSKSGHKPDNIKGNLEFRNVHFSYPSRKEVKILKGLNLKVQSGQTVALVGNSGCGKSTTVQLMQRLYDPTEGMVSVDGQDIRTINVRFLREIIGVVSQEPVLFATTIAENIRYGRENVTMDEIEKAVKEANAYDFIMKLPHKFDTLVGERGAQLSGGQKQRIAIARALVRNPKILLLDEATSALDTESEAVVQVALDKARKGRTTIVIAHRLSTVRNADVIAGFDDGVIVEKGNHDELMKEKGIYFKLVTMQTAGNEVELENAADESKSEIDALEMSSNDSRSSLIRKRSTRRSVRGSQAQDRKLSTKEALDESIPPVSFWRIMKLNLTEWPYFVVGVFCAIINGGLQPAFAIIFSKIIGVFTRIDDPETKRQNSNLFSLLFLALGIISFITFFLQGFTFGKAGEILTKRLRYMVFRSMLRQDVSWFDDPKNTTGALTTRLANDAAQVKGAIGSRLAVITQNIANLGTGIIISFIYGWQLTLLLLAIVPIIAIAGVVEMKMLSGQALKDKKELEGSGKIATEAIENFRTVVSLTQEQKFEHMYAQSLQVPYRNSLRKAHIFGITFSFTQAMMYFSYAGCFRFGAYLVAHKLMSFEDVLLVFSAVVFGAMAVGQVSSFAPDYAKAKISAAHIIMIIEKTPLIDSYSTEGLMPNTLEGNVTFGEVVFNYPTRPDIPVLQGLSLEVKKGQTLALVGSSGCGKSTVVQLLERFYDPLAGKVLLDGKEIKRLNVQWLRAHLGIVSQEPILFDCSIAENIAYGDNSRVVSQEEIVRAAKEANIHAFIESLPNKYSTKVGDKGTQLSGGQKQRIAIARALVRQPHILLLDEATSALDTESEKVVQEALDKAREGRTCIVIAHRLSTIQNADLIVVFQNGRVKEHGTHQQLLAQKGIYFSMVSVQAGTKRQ

[4] = tested on: MRP1; settings: cited from earlier work
[5] = tested on: ABCG2; settings: compared with Pgp; cited from earlier work
[6] = target: T1, Pgp; test: 99mTc-sestamibi scanning before and after tariquidar; assay type: in vivo; settings: after tariquidar 150 mg vs baseline

docetaxel disposition, pairwise comparison with and without tariquidar ([1]; AUC0-24 and Cmax): no significant difference | geometric mean ratio of docetaxel AUC0-24 (with tariquidar/without tariquidar) ([1]; 31 patients, plasma): 1.07 (95% CI: 0.922-1.25) | geometric mean ratio of docetaxel Cmax (with tariquidar/without tariquidar) ([1]; 31 patients, plasma): 0.907 (95% CI: 0.697-1.18)
SMILES: CC(=O)O[C@@]12CO[C@@H]1C[C@H](O)[C@@]1(C)C(=O)[C@H](O)C3=C(C)[C@@H](OC(=O)[C@H](O)[C@@H](NC(=O)OC(C)(C)C)c4ccccc4)C[C@@](O)([C@@H](OC(=O)c4ccccc4)[C@H]21)C3(C)C [docetaxel]
epiphora secondary to canalicular stenosis, incidence [2]: 33-50%

SMILES: COc1cc2c(cc1OC)CN(CCc1ccc(NC(=O)c3cc(OC)c(OC)cc3NC(=O)c3cnc4ccccc4c3)cc1)CC2 [tariquidar]
rhodamine efflux from CD56+ cells compared to Pre levels ([3]; 24 h after start of tariquidar 150 mg IV infusion, 41 patients): significantly decreased | inhibition of Pgp in circulating mononuclear cells ([3]; tariquidar 150 mg IV): complete inhibition | inhibition of MRP1 [4]: does not inhibit | inhibition of ABCG2-mediated resistance in vitro [5]: higher concentrations are required to inhibit ABCG2 | change in sestamibi AUC, liver ([6]; P<0.001): statistically significant change | change in sestamibi AUC, visualized tumor tissue ([6]; P<0.001): statistically significant change | change in sestamibi AUC0-3, cardiac tissue ([6]; two-tailed Student's t-test): No statistically significant increase | change in sestamibi AUC0-3, lung tissue ([6]; two-tailed Student's t-test): No statistically significant increase

inhibition of Pgp-mediated rhodamine transport ([3]; exogenously added valspodar 3 μg/ml): fully inhibits
SMILES: C/C=C/C[C@@H](C)C(=O)[C@H]1C(=O)N[C@@H](C(C)C)C(=O)N(C)CC(=O)N(C)[C@@H](CC(C)C)C(=O)N[C@@H](C(C)C)C(=O)N(C)[C@@H](CC(C)C)C(=O)N[C@@H](C)C(=O)N[C@H](C)C(=O)N(C)[C@@H](CC(C)C)C(=O)N(C)[C@@H](CC(C)C)C(=O)N(C)[C@@H](C(C)C)C(=O)N1C [valspodar]
